Experimental data published in patent US20220274927A1, “MEMBRANE-ACTIVE ANTI-BACTERIAL COMPOUNDS AND USES THEREOF” (Trustees of Dartmouth College, priority 2019, published 2022).
≈ marks a conversion by molar mass, not a printed value. Entries after “also recorded” stand apart in the source; their conditions may differ. Read-outs that look alike come from different tables or passages of the source.

How the values were obtained:
[1] = system: C. albicans; assay: Antimicrobial susceptibility, C. albicans; format: cell-based, Candida albicans; conditions: highest concentration tested
From the text: (§1) The compounds maintain activity against Staphylococcus epidermidis; however, 31, 111 and 123 all lose considerable potency against Enterococcus faecalis and Enterococcus faecium, which contribute heavily, along with MRSA, to healthcare-associated infections.

[2] = system: S. aureus NIH04008; assay: Antimicrobial susceptibility MIC, S. aureus NIH04008; format: cell-based; conditions: Staphylococcus aureus, NIH04008
From the text: (§2) The first set of compounds evaluated were analogs at the C-7 and C-8 positions of the initial quinolone hit DNAC-2 since the other HTS hits identified (data not shown) were substituted at these positions (Table 1). Applicants first explored modification at the C-7 position with a small series of electron-donating and withdrawing substituents. […] However, analogs containing electron donating groups at C-7 including ethyl 7, benzyloxy 8, methoxy 9 and methylthio 10 are weakly active displaying MICs of 320-640 μg/mL indicating electron-donating substituents at C-7 are poorly tolerated. […] The C-8 position was evaluated with trifluoromethyl 4 and trifluoromethoxy 5 containing the optimal C-7 substituents. Both 4 and 5 are equipotent to the corresponding C-7 analogs 2 and 3 indicating some flexibility of the quinolone scaffold.
as §1

[3] = system: K. pneumonia 7117; assay: Antimicrobial susceptibility MIC, K. pneumonia 7117; format: cell-based; conditions: Klebsiella pneumoniae; K. pneumonia strain 7117
From the text: as §2, §1

[4] = system: methicillin-resistant S. aureus (FPR3757); assay: MIC against clinical MRSA strain FPR3757 in Mueller-Hinton broth (CLSI); format: cell-based, Staphylococcus aureus
From the text: as §2

[5] = system: E. coli DHMC-1; assay: Antimicrobial susceptibility MIC, E. coli DHMC-1; format: cell-based; conditions: Escherichia coli, DHMC1; E. coli strain DHMC-1
From the text: as §2, §1

[6] = system: MRSA clinical strain S. aureus FPR3757; assay: Minimum bactericidal concentration (MBC) against S. aureus FPR3757; format: cell-based
[7] = system: S. aureus (MRSA); assay: In vitro time-kill assay; format: cell-based; conditions: 1× MIC, initial inoculum 10^5 CFU, plating over six hours
Method: FIG. 4 illustrates in vitro time-kill analysis of methicillin resistant Staphylococcus aureus (MRSA). Bacterial killing was monitored by measuring the colony forming unit (CFU) for six hours when treated with compounds 22, 31, 117, and 123 at 1× the minimum inhibitory concentration (MIC) of each compound. The CFU at each time point was determined by plating and then compared to a dimethyl sulfoxide (DMSO) control.
While the MIC data confirmed that these compounds were at least bacteriostatic, Applicants wanted to test for bactericidal properties of both the aminoquinoline and aminoquinolone scaffolds. […] The kinetics of bacterial killing was assessed in vitro using time-kill assays by incubating compounds at 1× their MIC with an initial inoculum of 10^5 colony forming units (CFU) of S. aureus and removing aliquots at various time points to determine the residual CFU by plating.

[8] = system: E. faecalis SMC374; assay: Antimicrobial susceptibility MIC, E. faecalis SMC374; format: cell-based; conditions: Enterococcus faecalis
From the text: as §2, §1

[9] = system: S. aureus MW2; assay: Antimicrobial susceptibility MIC, S. aureus MW2; format: cell-based; conditions: Staphylococcus aureus, MW2
From the text: as §2, §1

[10] = system: E. cloacae ND-21; assay: Antimicrobial susceptibility MIC, E. cloacae ND-21; format: cell-based; conditions: Enterobacter cloacae, ND21; E. cloacae strain ND-21
From the text: as §2, §1

[11] = system: E. faecium ATCC19579; assay: Antimicrobial susceptibility MIC, E. faecium ATCC19579; format: cell-based; conditions: Enterococcus faecium
From the text: as §2, §1

[12] = system: Staphylococcus simulans; assay: Macromolecular synthesis assays (radiolabeled precursor incorporation); format: cell-based
From the text: FIG. 5 illustrates macromolecular synthesis assays (representative data with 123). Time-course for inhibition of incorporation of radiolabeled precursors [^3H]-L-isoleucine (protein), [^3H]-thymidine (DNA), [^3H]-uridine (RNA), and [^3H]-glucosamine (cell wall) in S. simulans by 123 at 0.5×, 1× and 5×MIC. Data are expressed as the percentage of inhibition relative to the DMSO only negative control. The positive control antibiotics denoted by closed circles were used at 10× MIC. Data represent the mean±standard deviation (SD) of triplicate experiments.
Classical macromolecular synthesis assays were performed to provide insight on the putative mechanism of action of the most promising quinoline 31 and quinolone 123 candidates. Disruption of bacterial membranes is not only rapid, but interferes with all major metabolic activities in the cell and is thus easily distinguished by macromolecular synthesis assays. […] The control antibiotics ciprofloxacin, rifampicin, vancomycin and tetracycline were included as inhibitors of DNA, RNA, cell wall, and protein synthesis, respectively. The cells were quenched at various time points with 10% trichloroacetic acid (TCA), filtered, washed and the amount of precursor incorporation was quantified by scintillation counting.

[13] = system: S. aureus (strain COL); assay: Fluorescent microscopy of membrane, cell wall and DNA; format: cell-based; conditions: 1× MIC, 30 minutes, vs DMSO
Method: FIGS. 7A and 7B illustrate fluorescent microscopy (FM) analysis of the membrane, cell wall, and DNA in MRSA. FM of COL MRSA strain treated with compound 123 (FIG. 7B, bottom row) at 1×MIC and DMSO (FIG. 7A, top row) for 30 minutes followed by staining with FM-64 (far left column, 0.5 μg/mL), VanFL (second column, 1 μg/mL), and Hoechst (third column, 1 μg/mL) for 5 minutes and washed with 1× phosphate buffered saline (PBS) before imaging (fourth column, overlay).
(§3) These cellular defects were not seen in any of the control cells treated with DMSO. Fluorescent microscopy was performed on a S. aureus (strain COL) strain after treatment with either DMSO, 31 or 123 for 30 minutes followed by staining with FM 4-64 (red membrane stain), bodipy-vancomycin (Van-FL, green stain), and Hoechst (blue DNA stain).

[14] = system: sheep erythrocytes; assay: in vitro; format: cell-based; conditions: sheep, 32 μg/mL
Method: (§4) FIG. 8 illustrates percent hemolysis analysis of sheep erythrocytes. Concentration-dependent hemolysis was measured by monitoring the optical density (OD)540 of PBS-washed sheep erythrocytes. Complete hemolysis (100%) was confirmed by treatment of erythrocytes with Triton X-100. Data points represent the mean±SD of triplicate experiments.
(§5) The macromolecular synthesis assay, TEM, and FM experiments were all consistent with membrane disruption. […] The high membrane selectivity of the 5-aminoquinolin-4-ones in this assay is impressive and is in accordance with the observed therapeutic index (CC50/MIC).

[15] = system: clinical methicillin-resistant Staphylococcus aureus (MRSA) isolates; assay: MIC against panel of MRSA / staphylococcal strains (text summaries); format: cell-based; conditions: six S. aureus strains of Table 9, read-out: MIC towards all six S. aureus strains
From the text: as §2, §1

[16] = system: S. aureus (strain USA300); assay: Transmission electron microscopy of treated cells; format: cell-based; conditions: 1× MIC, after 10 minutes, vs DMSO
Method: FIGS. 6A, 6B and 6C illustrate transmission electron microscopy (TEM) imaging of MRSA USA300 treated with compounds 22 and 31.
Transmission electron microscopy (TEM) and fluorescence microscopy (FM) allowed Applicants to directly observe the effects of the novel 4-aminoquinolines […] 5-aminoquinolones on the cell morphology of staphylococci.
as §3

[17] = system: S. aureus membranes (versus erythrocyte membranes); assay: in vitro; format: cell-based, sheep; conditions: sheep
Method: as §4, §5

[18] = system: erythrocyte membranes (versus S. aureus membranes); assay: in vitro; format: cell-based, sheep; conditions: sheep; read-out: selectivity for S. aureus membranes over erythrocyte membranes
Method: as §4, §5

[19] = Staphylococcus aureus, MRSA, MRSA clinical strain FPR3757, Mueller-Hinton broth, CLSI guidelines, complete inhibition of observable growth, read-out: MIC

| Compound | MIC against C. albicans as multiple of MIC [1] [× × MIC] | MIC [2] [µg/mL] | MIC [3] [µg/mL] | MIC [4, 19] [µg/mL] | MIC [5] [µg/mL] | MBC relative to MIC [6] | time-kill: CFU reduction [7] | MIC [9] [µg/mL] | MIC [10] [µg/mL] | selectivity ratio [17] | also measured |
| --- | --- | --- | --- | --- | --- | --- | --- | --- | --- | --- | --- |
| FC(F)(F)c1ccc2c(Nc3ccc(Cl)c(Cl)c3)cc(C(F)(F)F)nc2c1 [Compound 22] | >16 | 0.125 (≈ 0.294 µM) | > 4 | 0.06 (≈ 0.141 µM) | > 4 | MBCs equal to their MIC values | reduced the CFU below the limit of detection at four to six hours | 0.125 (≈ 0.294 µM) | > 4 | – | MIC ([4]; Staphylococcus aureus, MRSA): 0.0625 µg/mL (≈ 0.147 µM); MIC ([8]; SMC374): 0.125 µg/mL (≈ 0.294 µM); MIC ([11]; ATCC19579): 0.125 µg/mL (≈ 0.294 µM) |
| FC(F)(F)c1ccc(Nc2cc(C(F)(F)F)nc3cc(C(F)(F)F)ccc23)nc1 [Compound 31] | >16 | 0.125 (≈ 0.294 µM) | > 64 | 0.25 (≈ 0.588 µM) | > 64 | MBCs equal to their MIC values | reduced the CFU below the limit of detection at four to six hours | 0.125 (≈ 0.294 µM) | > 64 | – | inhibition of DNA, RNA, protein and cell-wall synthesis ([12]; 0.5×, 1× and 5× MIC): concentration-dependent inhibition of DNA, RNA, protein and cell-wall synthesis; inhibition of macromolecular processes at 5× MIC ([12]; 5× the MIC, DNA, RNA, protein, cell wall precursor incorporation): completely inhibited all macromolecular processes; fold loss of potency (MIC) relative to the comparator ([4]; MRSA FPR3757 MIC ratio): 4 fold; DNA and cell wall staining (Hoechst, Van-FL) [13]: little or no change compared to the DMSO control; membrane staining (FM 4-64) [13]: membrane defects; hemolysis [14]: None of the compounds except 76, displayed any hemolysis; MIC ([8]; E. faecalis strain SMC374, read-out: MIC): 2 µg/mL (≈ 4.7 µM); MIC [15]: 0.125 to 0.25 µg/mL (≈ 0.294 to 0.588 µM); MIC ([11]; E. faecium strain ATCC19579, read-out: MIC): 0.25 to 1 µg/mL (≈ 0.588 to 2.35 µM); cell morphology in TEM images [16]: cross-wall-septum formation with reduced splitting; also recorded: mesosome-like membrane inclusions |
| O=c1cc(C(F)(F)F)[nH]c2cc(C(F)(F)F)cc(Nc3ccc(Cl)c(Cl)c3)c12 [Compound 108] | – | – | – | < 0.06 | – | – | – | – | – | > 500 | – |
| O=c1cc(C(F)(F)F)[nH]c2cc(C(F)(F)F)cc(Nc3ccc(F)c(F)c3)c12 [Compound 109] | – | – | – | < 0.06 | – | – | – | – | – | > 500 | – |
| O=c1cc(C(F)(F)F)[nH]c2cc(C(F)(F)F)cc(Nc3cccc(OC(F)(F)F)c3)c12 [Compound 110] | – | – | – | 0.06 to 0.12 (≈ 0.132 to 0.263 µM) | – | – | – | – | – | – | selectivity ratio [18]: > 500 |
| O=c1cc(C(F)(F)F)[nH]c2cc(C(F)(F)F)cc(Nc3cccc4[nH]ncc34)c12 [Compound 116] | – | – | – | 1 to 2 (≈ 2.43 to 4.85 µM) | – | – | – | – | – | – | MIC ([4]; MRSA clinical strain FPR3757, Mueller-Hinton broth, CLSI guidelines, complete inhibition of observable growth): 2 µg/mL (≈ 4.85 µM) |
